Data: patent US20090247520A1, “INHIBITORS OF ANTIGEN RECEPTOR-INDUCED NF-kappa B ACTIVATION” (The Burnham Institute for Medical Research, priority 2008, published 2009)

Experiments:
Assay type in all cases: cell-based
[1] = system: caspase-8 p43/41 processing intermediate; assay: Caspase-8 p43/41 processing in HEK293 cells after PMA/Ion; details: data not shown
Source text: Caspase-8 plays an essential role in antigen receptor-mediated NF-κB activation. It was recently reported that MALT1 interacts with Caspase-8 and activates this protease upon antigen receptor activation. […] We then examined if CID-2858522 affected the pathway at this point. PMA induced significant MALT1-caspase-8 interaction in HEK293 cells over-expressing Flag-MALT1 and Caspase-8. […] The caspase-8 p43/41 processing intermediate was generated in HEK293 cells after PMA/Ion treatment. […] We then assessed the effects of CID-2858522 on PMA-induced proteolytic processing of c-FLIP, a Caspase-8-mediated event recently shown to be required for antigen receptor mediated NF-κB activation.

[2] = system: TNF-induced NF-κB reporter gene activity; assay: TNF-induced NF-κB reporter counter-screen in HEK293-NFκB-Luc cells; details: TNF 10 ng/mL; CID-2858522 at concentrations as high as 4 μM
Experimental: (A) Structures of two hit compounds, CID-2858522 (left) and CID-2998237 (right) are shown; (B, C) 293-NF-κB-luc cells were pretreated for 2 hrs with various concentration of either CID-2858522 (B) or CID-29982387 (C) and then stimulated with TNF (10 ng/mL) or PMA/lonomycin (10 ng/mL; 5 ng/mL) for 16 h. Luciferase activity was measured and data were expressed as a percentage relative to control treatment with DMSO only (mean±SD; n=3). (D) 293-NF-κB-luc cells were pretreated for 2 h with various concentrations of CID-2858522 or CID-2998237, then stimulated with PMA/lonomycin for 16 h. IL-8 release into the medium was measured, expressing data as a percentage relative to control cultures treated with DMSO (mean±SD; n=3). (E) 293-NF-κB-luc cells were pretreated with CID-2858522 and then stimulated with PDBu for 16 h, IL-8 production and NF-κB luciferase activity were measured as above. (F) 293-NF-κB-luc cells were pretreated for 2 h with various concentrations of CID-2858522 or a PKC inhibitor (Bisindolylmaleimide I) at 1 μM followed by PMA/Ionomycin (10 ng/mL) stimulation for 2 h, then p65-DNA-binding activity was measured in nuclear extracts (10 μg protein), expressing data as fold-increase relative to unstimulated cells (mean±SD; n=3).
Counter Screening and Secondary Assays. […] Luciferase activity was measured using Britelite kit (Perkin Elmer). […]

[3] = system: p65-DNA binding activity induced by TNF; assay: NF-κB p65 DNA-binding activity induced by TNF; details: data not shown
Experimental: NF-κB DNA-binding activity assays. Nuclear extracts were prepared from 10 cm^2 plates of confluent cells using a kit (Active Motif, Carsbad, Calif.). The total protein content of nuclear fractions was quantified by the Bradford method, followed by storage at −80° C. NF-κB DNA-binding activity was measured in nuclear extracts (10 μg protein) using an immunoassay method (TransAM Kit [Active Motif]) employing 96 well plates coated with double-strand oligodeoxynucleotides containing NF-κB consensus binding site (5′-[…]-3′) and anti-p65 antibody, which was detected by secondary horseradish peroxidase (HRP)-conjugated antibody, using a calorimetric substrate with absorbance read at 450 nm within 5 minutes using a spectrophotometer, SpectraMax M5 (Molecular Devices, Sunnyvale, Calif.).

p65-DNA binding activity = p65-DNA binding activity in anti-IgM-stimulated CLL B-cells; details: human CLL B-cells
Experimental: (A) Isolated mouse primary splenocytes were cultured with anti-CD3/anti-CD28 (0.3 μg/mL each) or anti-IgM (3 μg/mL) for 48 h, then 1 μCi 3H-Thymidine was added for 12 h and incorporation into DNA was measured, expressing data as fold increase above unstimulated cells (mean±SD; n=3). (B-D) Primary splenocytes were pretreated for 2 h with IKK inhibitor, BMS-335541 (B), PKC inhibitor, Bisindolylmaleimide I (C) or CID-2858522 (D), then stimulated with anti-CD3/anti-CD28 (0.3 μg/mL) or anti-IgM (3 μg/mL) for 48 h. 1 μCi 3H-Thymidine was added for 12 h and incorporation into DNA was measured, expressing data as percent inhibition relative to control cells treated with DMSO (mean±SD; n=3). […] Levels of TRAF1 and β-actin were assessed by immunoblotting, quantified by densitometry and TRAF1 results reported relative to control cells, after normalization for β-actin (mean±SD). […] Then nuclear extracts were prepared and p65-DNA-binding activity was measured (mean±SD; n=3).
NF-κB DNA-binding activity assays. Nuclear extracts were prepared from 10 cm^2 plates of confluent cells using a kit (Active Motif, Carsbad, Calif.). The total protein content of nuclear fractions was quantified by the Bradford method, followed by storage at −80° C. […]

[4] = system: TNF-α-induced IKK-β phosphorylation; assay: TNF-α-induced IKK-β phosphorylation in HEK293 cells; details: 4 μM

Structure (SMILES) | inhibition of caspase-8 p43/41 processing intermediate [1] | inhibition of TNF-induced NF-κB reporter gene activity [2] | block of p65-DNA binding activity induced by TNF [3] | suppression of anti-IgM-induced p65-DNA binding activity (p65-DNA binding activity) | inhibition of TNF-α-induced IKK-β phosphorylation [4]
CN(C)CCCn1cc(C2=C(c3c[nH]c4ccccc34)C(=O)NC2=O)c2ccccc21 [Bisindolylmaleimide I, reference compound] | inhibited | – | – | – | –
Cc1cc2nc(NCCCO)n(CC(=O)c3cc(C(C)(C)C)c(O)c(C(C)(C)C)c3)c2cc1C [Compound 1, 2-(2-(3-Hydroxypropylamino)-5,6-dimethyl-1H-benzo[d]imidazol-1-yl)-1-(3,5-di-tert-butyl-4-hydroxyphenyl)ethanone] | – | did not inhibit | did not block | direct suppression | failed to inhibit
